For data set [1], the system named is Micrococcus luteus (DSM20030). Nature of the data set: Growth inhibition assay (MIC), M. luteus. It counts as cell-based. As to conditions: 384-well plates, LB, 30 °C, peptide 0.015–250 µM; MIC = concentration at which growth was totally inhibited; average of n ≥ 3; dash = no inhibition. Here is the method:
(§1) The minimal inhibitory concentration (MIC) of each AMPs was determined against the Gram-positive bacteria Listeria monocytogenes (DSM20600), L. grayi (DSM20601), L. fleischmannii (DSM24998), Staphylococcus aureus (DSM2569) and Micrococcus luteus (DSM20030), and the Gram-negative species Escherichia coli (D31) and Pseudomonas aeruginosa (DSM50071). The scorpion peptides were prepared at concentrations of 0.015–250 μM. The assays were carried out in 384-well plates (Greiner Bio One, Frickenhausen, Germany) using Brain Heart Infusion Broth (BHIB) medium for Listeria spp., Tryptic Soy Broth (TSB) for S. aureus, and lysogeny broth (LB) for the others. The bacteria were cultivated overnight at either 37 °C (Listeria spp., S. aureus, E. coli and P. aeruginosa) or 30 °C (M. luteus) and subcultured in fresh media before the growth inhibition assays. Growth inhibition was measured as previously described.

The subject of data set [2] is Escherichia coli (D31). Nature of the data set: Growth inhibition assay (MIC), E. coli. Type of data set: cell-based. The conditions noted are these: 384-well plates, LB, 37 °C, peptide 0.015–250 µM; growth totally inhibited; average of n ≥ 3; dash = no inhibition. Here is the method: as §1
Data set [3] has as its system Staphylococcus aureus (DSM2569). The data set is described as follows: Growth inhibition assay (MIC), S. aureus. Type of data set: cell-based. The conditions noted are these: 384-well plates, TSB, 37 °C, peptide 0.015–250 µM; growth totally inhibited; average of n ≥ 3; dash = no inhibition. Here is the method: as §1
The test system of data set [4] is L. grayi (DSM20601). The data set is described as follows: Growth inhibition assay (MIC), L. grayi. Type of data set: cell-based, Listeria grayi. The conditions noted are these: 384-well plates, BHIB, 37 °C, peptide 0.015–250 µM; growth totally inhibited; average of n ≥ 3; dash = no inhibition. As for the experimental part: as §1
In data set [5] the test system is L. fleischmannii (DSM24998). Nature of the data set: Growth inhibition assay (MIC), L. fleischmannii. It counts as cell-based, Listeria fleischmannii. As to conditions: 384-well plates, BHIB, 37 °C, peptide 0.015–250 µM; growth totally inhibited; average of n ≥ 3; dash = no inhibition. As for the experimental part: as §1
Data set [6] relates to Listeria monocytogenes (DSM20600). Nature of the data set: Growth inhibition assay (MIC), L. monocytogenes. Type of data set: cell-based. The conditions noted are these: 384-well plates, BHIB, 37 °C, peptide 0.015–250 µM; growth totally inhibited; average of n ≥ 3; dash = no inhibition. As for the experimental part:
as §1

For data set [7], the system named is pig erythrocytes. The data set is described as follows: Hemolytic activity on pig erythrocytes. It counts as cell-based. The conditions noted are these: 1 h at 37 °C; for HC10 (hemolytic concentration) / HC90 (hemolytic concentration) / HC50 (hemolytic concentration): 6.25–100 µM, absorbance 570 nm, non-linear fit; for HC10 (hemolytic concentration) / HC90 (hemolytic concentration): n ≥ 3; for HC50 (hemolytic concentration): n ≥ 3, n.c. (100) = not convergent at 100 µM; for percentage of hemolysis: 100 µM peptide (highest tested), 10% Triton X-100 = 100% hemolysis. Here is the method:
The hemolytic activity of each AMP was determined using pig erythrocytes. Serial dilutions (6.25–100 µM) of each AMP were prepared, and after incubation for 1 h at 37 °C the cells were centrifuged and the absorbance of the supernatant was measured at 570 nm using an Eon Microplate Spectrophotometer (BioTek Instruments, Winooski, VT, USA). Three independent experiments were carried out for each concentration in triplicate. PBS and 10% Triton X–100 were used as negative and positive controls, respectively. The percentage hemolysis was calculated using the formula 100((Apeptide–APBS)/(Atriton–APBS)). The AMP concentration causing 50% hemolysis (HC50) of the pig erythrocytes was determined by non-linear regression with the data fitted to the logistical sigmoidal equation, using GraphPad Prism v5.0 (GraphPad Software, San Diego, CA, USA) (Figure S2).

A short description of data set [8]: Cytotoxicity, alamarBlue, BHK-21 cells. Type of data set: cell-based, hamster. As to conditions: hamster, 2 h at 37 °C, 0.1–100 µM, alamarBlue fluorescence, non-linear fit, concentration reducing viability by 50%, n ≥ 3, read-out: EC50 (effective cytotoxic concentration). As for the experimental part:
(§2) Cytotoxicity was evaluated using the baby hamster kidney cell line (BHK-21) included in F2H®-Kit Basic (Chromotek, Planegg-Martinsried, Germany). The BHK-21 cells were grown in 25-cm^2 cell culture flasks (Greiner Bio One, Frickenhausen, Germany) containing Dulbecco’s Modified Eagle’s Medium (DMEM) supplemented with 4.5 g/L glucose, 110 mg/L sodium pyruvate and L-glutamine, and 10% fetal bovine serum (FBS), and were maintained in an NU-5810 incubator (ibs tecnomara, Fernwald, Germany) at 37 °C with a 5% CO2 atmosphere. The cells were subcultured at ~90% confluence by detaching with 0.25% trypsin and 0.03% EDTA (Sigma-Aldrich, St Louis, MO, USA). The AMPs were dissolved in water and diluted to final concentrations of 0.1, 1, 10 and 100 µM in DMEM.
(§3) BHK-21 cells were prepared and tested as previously described. Confluent cells were detached, counted and seeded at a concentration of 8.5 × 10^4 cell/mL in a 96-well culture plate (Greiner Bio One-Cell Star) 48 h before each experiment. The cells were rinsed with 100 µL PBS before adding 100 µL of the AMP solution and incubating for 2 h at 37 °C. The AMP solution was then removed and the cells were rinsed again with PBS before staining with 10% v/v alamarBlue™ Dye (Thermo Fisher Scientific, Schwerte, Germany) in DMEM for 1 h. The fluorescence of the metabolized alamarBlue™ Dye was measured in an Eon microplate reader using excitation and emission filters of 528 and 590 nm, respectively. DMEM and cells exposed to DMEM without AMPs were included as a blank reference and negative control, respectively. Four independent experiments were carried out for each AMP concentration in triplicate. To assess the percentage of viable cells compared to the control, the data were analyzed with GraphPad Prism v5.0 software using non-linear regression to fit the curve (Figure S2). The EC50 was reported as the AMP concentration that reduces cell viability by 50%.
For orientation: Resazurin is reduced to fluorescent resorufin, in cell work by metabolically active cells.

The test system of data set [9] is baby hamster kidney cells (BHK21). Nature of the data set: Cytotoxicity, alamarBlue, BHK-21 cells. It counts as cell-based. As to conditions: 2 h at 37 °C, 0.1–100 µM, alamarBlue fluorescence, non-linear fit, n ≥ 3. As for the experimental part:
as §2, §3

The subject of data set [10] is seven different bacteria. The data set is described as follows: Antibacterial activity against all seven bacteria tested (summary). Type of data set: cell-based. As to conditions: approximate overall value. Here is the method:
as §1

Data set [11] has as its system Pseudomonas aeruginosa (DSM50071). Nature of the data set: Growth inhibition assay (MIC), P. aeruginosa. Type of data set: cell-based. As to conditions: LB, 37 °C, highest concentration tested 250 µM. Here is the method: as §1

No end group written: not given here.

This note sets out measurements from PMC5308254, “Bioactivity of Natural and Engineered Antimicrobial Peptides from Venom of the Scorpions Urodacus yaschenkoi and U. manicatus” (Toxins, 2017).

In the case of GFWGKLWEGVKSAI-NH2 [Um3], the “MIC M. luteus” value in data set [1] is 2 µM. The “MIC E. coli” value in data set [2] is given as 15 µM. Besides, the “MIC S. aureus” value in data set [3] turned out to be 15 µM. Moreover, the “MIC L. grayi” value in data set [4] amounted to 4 µM. In addition, the “MIC L. fleischmannii” value in data set [5] is 4 µM. For the same substance, in [6], the “MIC L. monocytogenes” value is 8 µM. For the same substance, in [7], the “HC10 (hemolytic concentration)” value came to 70.48 µM, the “HC90 (hemolytic concentration)” value is on record as 246.84 µM and the “HC50 (hemolytic concentration)” value is listed as 126.2 µM. Also, the CC50 at 2 h in [8] was determined as 63.7 µM. Moreover, in data set [9], the “EC10 (effective cytotoxic concentration)” value was determined as 2.359 µM and the “EC90 (effective cytotoxic concentration)” value is 191.1 µM.

In the case of “GFWKGKLWKEGVKNAIK [D12, engineered AMP based on UyCT1 but with distributed lysine residues]”, the “MIC against all seven bacteria tested” value in data set [10] was “totally inactive”.

As to FLSTIWNGIKGLL-NH2 [Uy192], the “MIC M. luteus” value in data set [1] was 15 µM. The “MIC E. coli” value in data set [2] was found to be 15 µM. Besides, the “MIC S. aureus” value in data set [3] came out at 15 µM. In addition, the “MIC L. grayi” value in [4] stood at 15 µM. The “MIC L. fleischmannii” value in [5] is 4 µM. In addition, the “MIC L. monocytogenes” value in data set [6] worked out at 8 µM. Also, in [7], the “HC10 (hemolytic concentration)” value is given as 35.85 µM, the “HC90 (hemolytic concentration)” value is 675.22 µM and the “HC50 (hemolytic concentration)” value stood at 155.6 µM. Besides, the CC50 at 2 h in [8] was 52 µM. Also, in [9], the “EC10 (effective cytotoxic concentration)” value was 1.92 µM and the “EC90 (effective cytotoxic concentration)” value is reported as 155.90 µM.

Turning to GFWGKLWEGVKNAI-NH2 [UyCT1], the “MIC M. luteus” value in [1] is recorded as 1 µM. In data set [2], the “MIC E. coli” value is 4 µM. Besides, in data set [4], the “MIC L. grayi” value came out at 4 µM. Besides, the “MIC L. fleischmannii” value in data set [5] is listed as 4 µM. In [6], the “MIC L. monocytogenes” value is listed as 4 µM. Moreover, the “MIC P. aeruginosa (concentration inhibiting growth)” value in data set [11] came out at 60 µM. Besides, in [7], the “HC10 (hemolytic concentration)” value is listed as 31.5 µM, the “HC90 (hemolytic concentration)” value stood at 644.46 µM and the “HC50 (hemolytic concentration)” value is 142.5 µM. Further, the CC50 at 2 h in data set [8] came to 17.4 µM. Besides, in data set [9], the “EC10 (effective cytotoxic concentration)” value is given as 0.65 µM and the “EC90 (effective cytotoxic concentration)” value turned out to be 52.12 µM. For the same substance, the “MIC against all seven bacteria tested” value in [10] is on record as ~ 4 µM.

Consider IWSAIWSGIKGLL-NH2 [UyCT5], for which the “MIC M. luteus” value in [1] is reported as 4 µM. The “MIC E. coli” value in data set [2] amounted to 15 µM. In addition, the “MIC S. aureus” value in data set [3] is given as 8 µM. Moreover, the “MIC L. grayi” value in data set [4] came out at 8 µM. Moreover, the “MIC L. fleischmannii” value in [5] was 8 µM. The “MIC L. monocytogenes” value in data set [6] amounted to 4 µM. Further, in [7], the percentage of hemolysis is 70%, the “HC10 (hemolytic concentration)” value was determined as 2.39 µM, the “HC90 (hemolytic concentration)” value is 177.49 µM and the “HC50 (hemolytic concentration)” value is given as 20.59 µM. Further, the CC50 at 2 h in [8] was found to be 24.6 µM. For the same substance, in data set [9], the “EC10 (effective cytotoxic concentration)” value is 0.91 µM and the “EC90 (effective cytotoxic concentration)” value is listed as 73.65 µM.

On to GFWGKLWEGVKNAIKKK-NH2 [D11], for which, in data set [1], the “MIC M. luteus” value came out at 0.25 µM. Besides, the “MIC E. coli” value in data set [2] is reported as 4 µM. The “MIC L. grayi” value in [4] was 1 µM. The “MIC L. fleischmannii” value in data set [5] is listed as 1 µM. Further, in [6], the “MIC L. monocytogenes” value is 2 µM. Moreover, the “MIC P. aeruginosa (concentration inhibiting growth)” value in data set [11] was 30 µM. In data set [7], the percentage of hemolysis is ~ 10%, the “HC10 (hemolytic concentration)” value amounted to 39.76 µM, the “HC90 (hemolytic concentration)” value was 30,984.53 µM and the “HC50 (hemolytic concentration)” value is given as 1110 µM. In data set [8], the CC50 at 2 h came out at 17.8 µM. Further, in data set [9], the “EC10 (effective cytotoxic concentration)” value stood at 0.66 µM and the “EC90 (effective cytotoxic concentration)” value came to 53.43 µM. The “MIC against all seven bacteria tested” value in data set [10] is listed as ~ 1 µM.
